The target of this assay is post-Amadori AGE formation (RNase Amadori). As to the kind of experiment: Post-Amadori inhibitory activity: inhibition of AGE formation from RNase Amadori, detected by ELISA (BST-3CK antibody, DELFIA Europium). The class given is biochemical. Conditions: for potency at inhibiting post-Amadori AGE formation compared to PM: comparison with pyridoxamine (PM). On the procedure:
This example illustrates the activity of the dimer and trimer for inhibiting post-Amadori AGE formation compared to pyridoxamine.
All reactions were done in duplicate All compound stocks were 100 mM in DMSO. All reactions were carried out for 20 hours in 10% DMSO and 0.18 M Phosphate pH 7.4 Reaction volumes were 50 μl. Compound dilutions were first done in 100% DMSO Add to each well: • 20 μl of 0.2 M Phosphate • then 5 μl of compound dilution in 100% DMSO mix • Add 25 μl of 0.2 mg/ml RNase Amadori produced for a final protein concentration in the reaction of 0.1 mg/ml. • After 20 hours the reaction wells were diluted with coating buffer 5 to 50 then 4 to 50 to give a final concentration of 0.8 μg/ml or 40 ng/well. • Coat for two hours • Block one hour • 1 hour with primary antibody BST-3CK @ 1:10,000 • 1 hour with secondary antibody DELFIA Europium GAR @ 0.25 μg/ml (secondary antibody stock is at 660 μg/ml so diluted about 1:2500).
Compounds were tested over the range of concentrations 1000 to 1 μM.
On the technique in general: ELISA stands for enzyme-linked immunosorbent assay.

[1] abbreviates: 20 hours, 10% DMSO, 0.18 M Phosphate pH 7.4, 0.1 mg/ml RNase Amadori, tested 1000 to 1 μM, duplicate.

The record followed here is patent US8431712B2, “Methods for the synthesis of pyridoxamine” (NephroGenex, Inc., priority 2004, dated 2013).

For orientation: IC50 means the concentration needed to halve the response being measured. Read a high IC50 as a need for much substance. With `Cc1ncc(CO)c(Cc2nc(C)c(O)c(CN)c2CO)c1O` [Dimer X], the “potency at inhibiting post-Amadori AGE formation compared to PM” value was “more potent than PM”. This molecule returned an IC50 under setting [1] of 1000 µM.

As for `Cc1ncc(CO)c(CN)c1O` [Sigma PM, 4-aminomethyl-3-hydroxy-5-hydroxymethyl-2-methylpyridine, reference compound], half-maximal inhibition (from previous experiments) (IC50) was put at 7000 µM.

On to `Cc1ncc(CO)c(Cc2nc(C)c(O)c(Cc3nc(C)c(O)c(CN)c3CO)c2CO)c1O` [Trimer XX], for which the “potency at inhibiting post-Amadori AGE formation compared to PM” value was “more potent than PM”. Besides, under setting [1], the IC50 was 400 µM.
